Converted amounts (≈) assume the structure as drawn.
Assays:
[1] = system: subjects with symptomatic non-obstructive hypertrophic cardiomyopathy (nHCM); assay: […]-HCM Phase 2 randomized, double-blind, placebo-controlled, concentration-guided study; assay type: in vivo, human; conditions: baseline and week 16
[2] = system: participants with symptomatic oHCM; assay: EXPLORER-HCM Phase 3 double blind, randomized, placebo controlled study; assay type: in vivo, human
Description: A subset of participants consented to participate in a CMR substudy at selected sites. Randomization was stratified according to NYHA functional classification (II or III), current treatment with β-blocker (yes or no), planned type of ergometer used during the study (treadmill or exercise bicycle), and consent for the CMR substudy (yes or no).
The study included 3 periods carried out according to the following design:
1) Screening period (Day −35 to Day −1): Participants will undergo a variety of general, cardiopulmonary, laboratory, symptom, and PRO assessments over 1 to 2 days in order to assess eligibility. Key Screening tests include electrocardiogram (ECG); transthoracic echocardiography (TTE) conducted at rest, with Valsalva maneuver, and post-exercise; as well as cardiopulmonary exercise testing (CPET). The following screening assessments may be repeated, as long as within the 35-days screening window: blood tests, ECG, and/or TTE. Repeat assessments are allowed if central core labs require a repeat submission due to quality and in order to better assess inclusion/exclusion values. Participants who screen fail may be considered for rescreening based on the investigator's discretion, taking into consideration the reason(s) for screen fail. One attempt at rescreening will be allowed, and all procedures must be repeated.
2) Double-blind treatment period (Day 1 [randomization] to Week 30/end of treatment [EOT]): The double-blind treatment period will include a two-step dose titration scheme designed to achieve safe and effective dosing for each participant based on their own response parameters. […] Subsequently, assessments including ECG, PK (trough plasma concentrations), and TTE will be performed at each of 7 study visits, beginning at Week 4, and read by core laboratories. At Week 8 and Week 14, the dose may be increased, decreased, or remain unchanged based upon results of Week 6 and Week 12 assessments, respectively, and based primarily on measurements of provoked left ventricular outflow tract (LVOT) gradient and bounded by a target plasma concentration (PK) range and clinical tolerability (LVEF). At Week 8, the dose may be increased to a maximum daily dose of 10 mg (ie, increase from 5 mg QD to 10 mg QD), and at Week 14 to a maximum daily dose of 15 mg (ie, increase from 10 mg QD to 15 mg QD). Dose increases are designed to be step wise and are not allowed to skip doses (eg, from 5 mg to 15 mg).
At Week 30/EOT, participants will complete CPET and post-exercise TTE. For any participants permanently discontinuing treatment prior to Week 30, an early termination (ET) visit should be conducted as soon as possible, including CPET and post-exercise TTE. Participants with ET will also be encouraged to complete all remaining study visits and assessments, including the Week 30 visit.
3) Posttreatment follow-up period (Week 30/EOT to Week 38/end of study [EOS]): When double-blind treatment ends at Week 30, participants will be contacted by phone at Week 34 and return to the site at Week 38 for an EOS visit. At the EOS visit, specified assessments will be repeated. This posttreatment follow-up period applies only to participants who are receiving study drug after Week 22.
To maintain safety throughout the double-blind treatment period, a clinic visit will occur every 2 to 4 weeks, beginning at Week 4 for an initial evaluation of clinical tolerability and safety. Clinic visits will include but are not limited to clinical evaluation (symptoms, PRO evaluations, adverse event [AE]/serious adverse event [SAE] assessment), ECGs, PK sample, TTEs, and laboratory assessments. Results of TTE performed by study site sonographers at each scheduled visit following randomization should be kept blinded to the investigator and other study site personnel. […]

[3] = system: subjects with obstructive HCM; conditions: human, in vivo; cited from earlier work
[4] = system: isolated adult rat ventricular myocytes; assay: Counteraction of mavacamten effects by isoproterenol in isolated myocytes in vitro; assay type: cell-based
Description: Additional supportive measures, e.g., intravenous volume supplementation and/or the use of arterial vasoconstrictor agents (a adrenergic agonists) may complement the use of a β adrenergic agonist.

[5] = API thermodynamic solubility; assay type: physicochemical; conditions: thermodynamic from solid
CYP3A4/5 = assay: In vitro contribution of CYP enzymes to mavacamten metabolism; assay type: in vitro ADME
[6] = Mavacamten arm (n = 123), baseline to Week 30
[7] = Mavacamten arm, defined as NYHA Class I and all LVOT gradients <30 mmHg
[8] = change from baseline to Week 30, p <0.0001

## CC(C)n1c(=O)cc(N[C@@H](C)c2ccccc2)[nH]c1=O [mavacamten, (S)-3-Isopropyl-6-((1-phenylethyl)amino)pyrimidine-2, 4(1H,3H)-dione]
[1]
  hs-cTnI, post-hoc analysis of banked serum samples: confirmed the reduction in cTnI
[2]; 7 subjects, placebo 10.2%
  subjects with severe TEAEs: 5.7%
[2]; Mavacamten (n = 123)
  Response Type 1 (pVO2 ≥1.5 ml/kg/min and NYHA improved ≥1), n (%): 41 (33.3) n (%)
  Response Type 2 (pVO2 ≥3.0 ml/kg/min and no worsening NYHA), n (%): 29 (23.6) n (%)
  pVO2 ≥3.0 and NYHA ≥1, n (%): 25 (20.3) n (%)
[2]; Mavacamten (n = 123), Week 30
  Met Composite Functional Response, either type, n (%): 45 (36.6) n (%)
[2]; Mavacamten arm
  Absence of MR (mitral regurgitation), (%): (9.0) %
  Absence of MR (mitral regurgitation), n/assessible: 10/111
  Absence of SAM (systolic anterior motion of mitral valve), (%): (80.9) %
  Absence of SAM (systolic anterior motion of mitral valve), n/assessible: 76/94
  participants with a temporary discontinuation associated with reduced ejection fraction: 3
[2]; [6]
  HCMSQ-SoB score, change from baseline, mean (SD): −2.82 (2.7)
  KCCQ-CSS, change from baseline, mean (SD): 13.6 (14.4)
  KCCQ-OSS, change from baseline, mean (SD): 14.87 (15.8)
  KCCQ-total symptom score, change from baseline, mean (SD): 12.44 (15.0)
  NYHA improved ≥1 Class, n (%): 80 (65) n (%)
  Post-exercise LVOT peak gradient, change from baseline, mean (SD): −47.2 (40.3) mmHg
  pVO2, change from baseline, mean (SD): 1.4 (3.1) mL/kg/min
[2]; Mavacamten arm, Week 30
  Post-exercise LVOT peak gradient < 30 mmHg, (%): (56.6) %
  Post-exercise LVOT peak gradient < 30 mmHg, n/assessible: 64/113
  Post-exercise LVOT peak gradient < 50 mmHg, (%): (74.3) %
  Post-exercise LVOT peak gradient < 50 mmHg, n/assessible: 75/101
[2]; [7]
  Complete Response, (%): (27.4) %
  Complete Response, n/assessible: 32/117
[2]; Mavacamten vs Placebo
  Met Composite Functional Response, either type: 19.4
  Response Type 1: 19.3
  Response Type 2: 12.6
  pVO2 ≥3.0 and NYHA ≥1: 12.5
[2]; NYHA Class I and all LVOT gradients <30 mmHg, p <0.0001
  Complete Response, Mava vs Placebo Difference (95% CI): 26.6 (18.3, 34.8)
[2]; Week 30, 95% CI (0.169, 0.241), p <0.0001
  NT-proBNP Mava vs Placebo Model Est RR: 0.202
[2]; Week 30, 95% CI (0.500, 0.693), p <0.0001
  hs-cTnI Mava vs Placebo Model Est RR: 0.589
[2]; Week 30, p <0.0001
  Post-exercise LVOT peak gradient < 30 mmHg, Mava vs Placebo Difference (95% CI): 49.6 (39.3, 59.8)
  Post-exercise LVOT peak gradient < 50 mmHg, Mava vs Placebo Difference (95% CI): 53.5 (42.0. 65.0)
[2]; baseline to Week 30, p <0.0001
  NYHA improved ≥1 Class, Mavacamten vs Placebo Difference (95% CI): 33.8 (22.1, 45.4) <0.0001
[2]; change from baseline to Week 30, p 0.0002
  KCCQ-total symptom score, Mavacamten vs Placebo Difference (95% CI): 7.60 (3.68, 11.52) 0.0002
[2]; change from baseline to Week 30, p 0.0006
  pVO2, Mavacamten vs Placebo Difference (95% CI): 1.35 (0.580, 2.116) 0.0006 mL/kg/min
[2]; [8]
  HCMSQ-SoB score, Mavacamten vs Placebo Difference (95% CI): −1.8 (−2.402, −1.196) <0.0001
  KCCQ-CSS, Mavacamten vs Placebo Difference (95% CI): 9.1 (5.46, 12.66) <0.0001
  KCCQ-OSS, Mavacamten vs Placebo Difference (95% CI): 9.12 (5.46, 12.80) <0.0001
  Post-exercise LVOT peak gradient, Mavacamten vs Placebo Difference (95% CI): −35.5 (−43.1, −27.9) <0.0001 mmHg
[2]; doses ranging from 2.5 to 15 mg
  Tolerability: well tolerated
[2]; intent-to-treat, 45 of the 123 patients
  patients meeting the primary efficacy endpoint (composite functional response): 36.6%
[2]; on mavacamten (atrial fibrillation, syncope)
  permanent treatment discontinuations due to adverse events: 2
[2]; p 0.0006
  Absence of MR, Mava vs Placebo Difference (95% CI): 9.0 (3.7, 14.3)
[2]; p <0.0001
  Absence of SAM, Mava vs Placebo Difference (95% CI): 46.9 (34.5, 59.2)
[2]; patients on mavacamten (all at a 5 mg dose)
  temporary discontinuations: 8
[2]; placebo 1%
  patients achieving a complete response (NYHA 1 and all LVOT gradients below 30 mmHg): 27%
[2]; placebo 4
  patients with cardiac SAEs: 4
[2]; placebo 7%
  patients achieving a post-exercise LVOT peak gradient below 30 mmHg: 57%
[2]; placebo 20
  number of SAEs: 12
[2]; placebo 21%
  patients achieving NYHA class I status: 65%
[2]; through week 30, 10 subjects
  subjects experiencing SAEs: 8.1%
[3]
  Obstruction of the left ventricular outflow tract: reduced or eliminated the obstruction of the left ventricular outflow tract
[4]
  Reversal of pharmacologic effects by β adrenergic agonist: can be counteracted by β adrenergic agonists
[5]; DCM, organic solvent or mixture
  solubility thermodynamic: 1100 µg/mL (≈ 4.02 mM)
[5]; DMF, organic solvent or mixture
  solubility thermodynamic: ~130000 µg/mL (≈ 476 mM)
[5]; DMSO, organic solvent or mixture
  solubility thermodynamic: > 150000 µg/mL
[5]; EtOAc, organic solvent or mixture
  solubility thermodynamic: 1000 µg/mL (≈ 3.66 mM)
[5]; EtOH, organic solvent or mixture
  solubility thermodynamic: 7400 µg/mL (≈ 27.1 mM)
[5]; NMP, organic solvent or mixture
  solubility thermodynamic: > 150000 µg/mL
[5]; acetone, organic solvent or mixture
  solubility thermodynamic: 3300 µg/mL (≈ 12.1 mM)
[5]; acetonitrile, organic solvent or mixture
  solubility thermodynamic: 900 µg/mL (≈ 3.29 mM)
[5]; diethyl ether, organic solvent or mixture
  solubility thermodynamic: 50 µg/mL (≈ 0.183 mM)
[5]; hexanes, organic solvent or mixture
  solubility thermodynamic: < 10 µg/mL
[5]; n-heptanes, organic solvent or mixture
  solubility thermodynamic: < 10 µg/mL
[5]; n-hexane, organic solvent or mixture
  solubility thermodynamic: < 10 µg/mL
[5]; p-dioxane, organic solvent or mixture
  solubility thermodynamic: 1200 µg/mL (≈ 4.39 mM)
[5]; water
  solubility thermodynamic: 10 µg/mL (≈ 0.0366 mM)
CYP3A4/5
  percent contribution to the metabolism of mavacamten: 18%

From patent publication US20260207600A1, “METHODS OF TREATMENT WITH MYOSIN MODULATOR” (MYOKARDIA, INC., priority 2019, published 2026)
